Laboratory results: patent US8906944B2, “Compounds as tyrosine kinase modulators” (Allergan, Inc., priority 2009, dated 2014)

How the values were obtained:
PDGFβ [1] = molecular target: T1, PDGFβ (Homo sapiens, UniProt P09619); assay: PDGFβ enzyme assay; assay type: biochemical; conditions: Table IV, amide or urea linker
VEGFR2 = VEGFR2 (Homo sapiens, UniProt P35968); assay: VEGF stimulated Ca++ signal in vitro (FLIPR)
Experimental: VEGF Stimulated Ca^++Signal in Vitro
Automated FLIPR (Fluorometric Imaging Plate Reader) technology was used to screen for inhibitors of VEGF induced increases in intracellular calcium levels in fluorescent dye loaded endothelial cells. HUVEC (human umbilical vein endothelial cells) (Clonetics) were seeded in 96-well fibronectin coated black-walled plates overnight at 37 degree. C./5% CO2. […] C. Cells were washed 4 times (Original Cell Wash, Labsystems) to remove extracellular dye. […] Data were generated by determining max-min fluorescence levels for unstimulated, stimulated, and drug treated samples. IC50 values for test compounds were calculated from % inhibition of VEGF stimulated responses in the absence of inhibitor.

VEGFR1 = VEGFR1 (Homo sapiens, UniProt P17948); assay: VEGFR1 enzyme assay; assay type: biochemical; conditions: Table IV, amide or urea linker
Sequence of VEGFR1 (P17948 27-1338, species assumed): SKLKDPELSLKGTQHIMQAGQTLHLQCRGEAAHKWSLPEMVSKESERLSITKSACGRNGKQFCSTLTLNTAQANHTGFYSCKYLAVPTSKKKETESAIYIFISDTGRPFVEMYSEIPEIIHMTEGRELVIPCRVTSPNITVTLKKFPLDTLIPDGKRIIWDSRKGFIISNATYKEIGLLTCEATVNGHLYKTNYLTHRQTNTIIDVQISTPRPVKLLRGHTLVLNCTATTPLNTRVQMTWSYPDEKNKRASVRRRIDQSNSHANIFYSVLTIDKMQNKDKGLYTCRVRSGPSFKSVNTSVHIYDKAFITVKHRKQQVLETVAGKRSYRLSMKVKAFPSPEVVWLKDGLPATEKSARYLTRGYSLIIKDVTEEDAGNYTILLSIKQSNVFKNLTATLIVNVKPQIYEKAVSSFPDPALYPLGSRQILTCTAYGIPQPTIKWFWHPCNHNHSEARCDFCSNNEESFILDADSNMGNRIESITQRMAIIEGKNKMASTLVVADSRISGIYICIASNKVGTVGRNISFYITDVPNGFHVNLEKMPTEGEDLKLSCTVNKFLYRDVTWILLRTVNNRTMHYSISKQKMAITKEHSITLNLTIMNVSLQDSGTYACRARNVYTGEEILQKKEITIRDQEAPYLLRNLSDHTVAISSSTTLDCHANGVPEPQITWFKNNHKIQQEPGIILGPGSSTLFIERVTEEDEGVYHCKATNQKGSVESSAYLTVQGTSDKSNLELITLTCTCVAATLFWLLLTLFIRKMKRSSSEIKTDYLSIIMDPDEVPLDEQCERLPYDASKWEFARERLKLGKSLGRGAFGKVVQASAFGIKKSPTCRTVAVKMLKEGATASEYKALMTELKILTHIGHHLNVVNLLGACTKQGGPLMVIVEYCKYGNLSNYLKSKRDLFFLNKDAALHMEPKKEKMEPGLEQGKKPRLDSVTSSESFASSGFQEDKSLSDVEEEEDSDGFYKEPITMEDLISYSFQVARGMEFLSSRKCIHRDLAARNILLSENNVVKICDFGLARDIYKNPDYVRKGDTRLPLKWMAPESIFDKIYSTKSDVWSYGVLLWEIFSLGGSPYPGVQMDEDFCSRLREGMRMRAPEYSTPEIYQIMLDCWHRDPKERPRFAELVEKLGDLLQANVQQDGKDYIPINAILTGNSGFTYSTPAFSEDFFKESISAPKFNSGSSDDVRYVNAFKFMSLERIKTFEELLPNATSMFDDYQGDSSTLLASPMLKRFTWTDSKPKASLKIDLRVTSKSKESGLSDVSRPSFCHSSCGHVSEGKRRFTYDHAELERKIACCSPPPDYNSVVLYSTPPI

[2] = molecular target: T2, human VEGF receptor (VEGFR-2) (Homo sapiens, UniProt P35968); assay: VEGFR2 kinase assay; assay type: biochemical; conditions: His-VEGFR-2 cytoplasmic domain, 3.6 μM ATP; Table IV, amide or urea linker; read-out: VEGFR2 Enzyme IC50
T2 construct: The cytoplasmic domain of the human VEGF receptor (VEGFR-2) was expressed; His; made in house; host or cells: insect cells (baculovirus)
T2 sequence (P35968 786-1356 limits assumed): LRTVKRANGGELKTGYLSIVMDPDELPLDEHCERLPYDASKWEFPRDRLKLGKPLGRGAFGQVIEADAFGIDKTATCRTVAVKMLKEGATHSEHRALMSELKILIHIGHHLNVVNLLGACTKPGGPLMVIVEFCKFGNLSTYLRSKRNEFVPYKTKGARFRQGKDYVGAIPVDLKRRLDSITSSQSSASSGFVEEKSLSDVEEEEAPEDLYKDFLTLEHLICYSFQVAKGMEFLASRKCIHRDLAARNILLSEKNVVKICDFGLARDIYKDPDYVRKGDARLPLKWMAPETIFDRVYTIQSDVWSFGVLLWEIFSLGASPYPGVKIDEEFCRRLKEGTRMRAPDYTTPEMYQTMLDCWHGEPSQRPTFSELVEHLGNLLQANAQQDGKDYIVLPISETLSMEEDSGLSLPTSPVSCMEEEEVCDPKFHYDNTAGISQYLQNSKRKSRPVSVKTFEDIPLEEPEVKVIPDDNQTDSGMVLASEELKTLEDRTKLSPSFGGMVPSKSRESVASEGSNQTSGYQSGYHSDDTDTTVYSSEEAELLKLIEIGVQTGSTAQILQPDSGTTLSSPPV
How it was run: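 His-tagged VEGFR-2 cytoplasmic domain from baculovirus-infected insect cells phosphorylating plate-bound poly-Glu-Tyr (4:1). IC50 from blank-subtracted optical density versus compound concentration.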

PDGFβ [3] = molecular target: T1, PDGFβ; assay: PDGF stimulated Ca2+ signal in vitro (FLIPR); assay type: cell-based; design: host or cells: NHDF-Ad (normal human dermal fibroblasts); conditions: NHDF-Ad, PDGF stimulation 10 ng/mL; Table IV, amide or urea linker; read-out: PDGFβ Cellular IC50

T1 sequence (P09619 33-1106): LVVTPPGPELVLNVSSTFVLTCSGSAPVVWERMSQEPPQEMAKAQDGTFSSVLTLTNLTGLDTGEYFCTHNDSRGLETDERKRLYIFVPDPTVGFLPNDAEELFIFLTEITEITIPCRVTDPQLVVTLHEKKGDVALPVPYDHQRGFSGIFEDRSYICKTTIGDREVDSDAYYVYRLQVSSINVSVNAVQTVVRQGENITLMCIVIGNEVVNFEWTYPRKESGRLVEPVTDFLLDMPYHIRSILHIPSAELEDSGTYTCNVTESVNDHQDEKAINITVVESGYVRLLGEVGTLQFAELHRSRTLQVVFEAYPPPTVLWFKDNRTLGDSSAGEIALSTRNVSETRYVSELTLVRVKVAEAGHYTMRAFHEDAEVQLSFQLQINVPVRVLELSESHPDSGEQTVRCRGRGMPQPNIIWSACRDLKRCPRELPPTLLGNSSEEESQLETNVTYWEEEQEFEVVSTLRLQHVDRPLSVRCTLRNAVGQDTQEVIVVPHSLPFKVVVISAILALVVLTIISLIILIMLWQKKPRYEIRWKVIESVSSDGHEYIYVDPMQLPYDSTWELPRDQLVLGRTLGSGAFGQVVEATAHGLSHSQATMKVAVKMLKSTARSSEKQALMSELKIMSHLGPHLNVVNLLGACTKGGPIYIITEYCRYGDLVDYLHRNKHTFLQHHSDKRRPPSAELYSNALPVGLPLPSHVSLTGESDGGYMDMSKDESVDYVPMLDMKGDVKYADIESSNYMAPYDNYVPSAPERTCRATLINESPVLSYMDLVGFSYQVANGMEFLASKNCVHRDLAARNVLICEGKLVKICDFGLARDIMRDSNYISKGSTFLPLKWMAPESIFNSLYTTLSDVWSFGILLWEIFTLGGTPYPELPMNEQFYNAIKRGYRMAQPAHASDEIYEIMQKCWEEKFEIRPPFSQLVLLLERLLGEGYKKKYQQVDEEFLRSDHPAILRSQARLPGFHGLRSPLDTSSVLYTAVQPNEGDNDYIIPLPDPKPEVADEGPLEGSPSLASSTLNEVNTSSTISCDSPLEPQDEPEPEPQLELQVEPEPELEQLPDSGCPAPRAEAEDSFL
Sequence of VEGFR2 (P35968 20-1356): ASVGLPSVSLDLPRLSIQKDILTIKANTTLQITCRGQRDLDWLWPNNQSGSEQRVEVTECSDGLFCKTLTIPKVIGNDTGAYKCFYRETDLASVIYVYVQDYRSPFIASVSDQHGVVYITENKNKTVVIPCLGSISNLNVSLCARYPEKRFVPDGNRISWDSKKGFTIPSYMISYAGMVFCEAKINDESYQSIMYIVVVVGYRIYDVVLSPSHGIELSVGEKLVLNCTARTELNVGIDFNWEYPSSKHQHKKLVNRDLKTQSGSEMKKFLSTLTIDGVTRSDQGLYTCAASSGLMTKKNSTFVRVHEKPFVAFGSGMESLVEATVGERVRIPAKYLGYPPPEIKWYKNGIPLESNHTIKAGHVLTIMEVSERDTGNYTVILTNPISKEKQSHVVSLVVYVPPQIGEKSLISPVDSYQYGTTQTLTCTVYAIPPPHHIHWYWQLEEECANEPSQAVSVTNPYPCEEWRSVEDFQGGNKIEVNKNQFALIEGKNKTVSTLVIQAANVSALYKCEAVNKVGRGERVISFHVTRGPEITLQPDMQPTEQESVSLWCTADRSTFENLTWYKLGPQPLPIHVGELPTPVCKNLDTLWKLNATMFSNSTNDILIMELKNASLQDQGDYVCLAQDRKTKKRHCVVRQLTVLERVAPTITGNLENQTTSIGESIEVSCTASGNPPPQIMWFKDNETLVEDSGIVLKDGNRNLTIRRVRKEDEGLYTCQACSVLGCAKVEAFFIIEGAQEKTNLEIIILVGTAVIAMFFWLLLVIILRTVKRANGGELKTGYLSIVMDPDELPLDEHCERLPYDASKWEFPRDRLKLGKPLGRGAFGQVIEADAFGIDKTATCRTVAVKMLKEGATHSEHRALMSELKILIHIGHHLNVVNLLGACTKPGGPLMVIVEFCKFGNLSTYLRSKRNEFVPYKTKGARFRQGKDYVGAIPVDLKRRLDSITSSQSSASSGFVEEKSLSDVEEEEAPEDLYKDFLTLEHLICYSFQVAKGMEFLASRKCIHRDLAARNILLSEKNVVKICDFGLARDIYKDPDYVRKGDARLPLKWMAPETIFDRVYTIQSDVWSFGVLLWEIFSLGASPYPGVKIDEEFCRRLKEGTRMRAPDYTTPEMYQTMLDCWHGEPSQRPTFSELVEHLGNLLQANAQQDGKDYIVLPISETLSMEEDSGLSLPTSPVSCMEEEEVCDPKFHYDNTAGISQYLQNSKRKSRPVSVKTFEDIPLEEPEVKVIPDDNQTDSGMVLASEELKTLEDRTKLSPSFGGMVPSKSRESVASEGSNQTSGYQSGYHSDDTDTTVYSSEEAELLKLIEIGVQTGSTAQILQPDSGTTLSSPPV

SMILES | IC50 (PDGFβ [1]) [µM] | IC50 (VEGFR2) [µM] | IC50 (VEGFR1) [µM] | IC50 [2] [µM] | IC50 (PDGFβ [3]) [µM]
CCOC(=O)CN1CCN(CCCNC(=O)c2c[nH]c(-c3cc(Oc4ccc(NC(=O)Nc5cc(C)ccc5F)cc4)ccn3)c2)CC1 [Example 158, ethyl [4-(3-{[(5-{4-[4-({[(2-fluoro-5-methylphenyl)amino]carbonyl}amino)phenoxy]pyridin-2-yl}-1H-pyrrol-3-yl)carbonyl]amino}propyl)piperazin-1-yl]acetate] | 0.029 | 0.011 | 0.006 | 0.011 | –
Cc1ccc(F)c(NC(=O)Nc2ccc(Oc3ccnc(-c4cc(C(=O)NCCCN5CCOC(CO)C5)c[nH]4)c3)cc2)c1 (stereo not shown) [Example 159, 5-{4-[4-({[(2-fluoro-5-methylphenyl)amino]carbonyl}amino)phenoxy]pyridin-2-yl}-N-{3-[2-(hydroxymethyl)morpholin-4-yl]propyl}-1H-pyrrole-3-carboxamide] | 0.033 | 0.026 | 0.009 | 0.011 | –
COC(=O)CCCOC(=O)c1c[nH]c(-c2cc(Oc3ccc(NC(=O)Nc4cc(C)ccc4F)cc3)ccn2)c1 [Example 165, 4-methoxy-4-oxobutyl 5-{4-[4-({[(2-fluoro-5-methylphenyl)amino]carbonyl}amino)phenoxy]pyridin-2-yl}-1H-pyrrole-3-carboxylate] | 0.035 | 0.012 | 0.017 | 0.01 | –
CCOC(=O)CCCCNC(=O)c1c[nH]c(-c2cc(Oc3ccc(NC(=O)Nc4cc(C)ccc4F)cc3)ccn2)c1 [Example 167, ethyl 5-{[(5-{4-[4-({[(2-fluoro-5-methylphenyl)amino]carbonyl}amino)phenoxy]pyridin-2-yl}-1H-pyrrol-3-yl)carbonyl]amino}pentanoate] | 0.027 | 0.011 | 0.021 | 0.009 | –
CCOC(=O)N1CCN(CCNC(=O)c2c[nH]c(-c3cc(Oc4ccc(NC(=O)Nc5cc(C)ccc5F)c(F)c4)ccn3)c2)CC1 [Example 168, ethyl 4-(2-{[(5-{4-[3-fluoro-4-({[(2-fluoro-5-methylphenyl)amino]carbonyl}amino)phenoxy]pyridin-2-yl}-1H-pyrrol-3-yl)carbonyl]amino}ethyl)piperazine-1-carboxylate] | 0.012 | 0.011 | 0.017 | 0.01 | –
CCOC(=O)N1CCN(CCCNC(=O)c2c[nH]c(-c3cc(Oc4cc(C(=O)Nc5cc(C)ccc5F)ccc4F)ccn3)c2)CC1 [Example 171, ethyl 4-{3-[({5-[4-(2-fluoro-5-{[(2-fluoro-5-methylphenyl)amino]carbonyl}phenoxy)pyridin-2-yl]-1H-pyrrol-3-yl}carbonyl)amino]propyl}piperazine-1-carboxylate] | 0.033 | 0.021 | 0.091 | 0.023 | –
CCOC(=O)N1CCN(CCCNC(=O)c2c[nH]c(-c3cc(Oc4ccc(NC(=O)Nc5cc(C)ccc5F)c(F)c4)ccn3)c2)CC1 [Example 172, ethyl 4-(3-{[(5-{4-[3-fluoro-4-({[(2-fluoro-5-methylphenyl)amino]carbonyl}amino)phenoxy]pyridin-2-yl}-1H-pyrrol-3-yl)carbonyl]amino}propyl)piperazine-1-carboxylate] | 0.019 | 0.013 | 0.011 | 0.01 | –
COC(=O)CCNC(=O)c1c[nH]c(-c2cc(Oc3ccc(NC(=O)Nc4cc(C)ccc4F)c(F)c3)ccn2)c1 [Example 175, methyl 3-{[(5-{4-[3-fluoro-4-({[(2-fluoro-5-methylphenyl)amino]carbonyl}amino)phenoxy]pyridin-2-yl}-1H-pyrrol-3-yl)carbonyl]amino}propanoate] | 0.034 | – | – | – | 0.032
COC(=O)CNC(=O)c1c[nH]c(-c2cc(Oc3ccc(NC(=O)Nc4cc(C)ccc4F)c(F)c3)ccn2)c1 [Example 211, methyl {[(5-{4-[3-fluoro-4-({[(2-fluoro-5-methylphenyl)amino]carbonyl}amino)phenoxy]pyridin-2-yl}-1H-pyrrol-3-yl)carbonyl]amino}acetate] | 0.012 | 0.003 | 0.008 | 0.009 | –
Cc1ccc(F)c(NC(=O)Nc2ccc(Oc3ccnc(-c4cc(C(=O)NCCCNC(=O)OC(C)(C)C)c[nH]4)c3)cc2F)c1 [Example 212, tert-butyl (3-{[(5-{4-[3-fluoro-4-({[(2-fluoro-5-methylphenyl)amino]carbonyl}amino)phenoxy]pyridin-2-yl}-1H-pyrrol-3-yl)carbonyl]amino}propyl)carbamate] | 0.045 | 0.006 | 0.02 | 0.013 | –
COC(=O)CN(CCCNC(=O)c1c[nH]c(-c2cc(Oc3ccc(NC(=O)Nc4cc(C)ccc4F)c(F)c3)ccn2)c1)CC(=O)OC [Example 213, dimethyl 2,2′-[(3-{[(5-{4-[3-fluoro-4-({[(2-fluoro-5-methylphenyl)amino]carbonyl}amino)phenoxy]pyridin-2-yl}-1H-pyrrol-3-yl)carbonyl]amino}propyl)imino]diacetate] | 0.038 | 0.003 | 0.013 | 0.009 | –
COC(=O)CN(CCNC(=O)c1c[nH]c(-c2cc(Oc3ccc(NC(=O)Nc4cc(C)ccc4F)c(F)c3)ccn2)c1)CC(=O)OC [Example 215, dimethyl 2,2′-[(2-{[(5-{4-[3-fluoro-4-({[(2-fluoro-5-methylphenyl)amino]carbonyl}amino)phenoxy]pyridin-2-yl}-1H-pyrrol-3-yl)carbonyl]amino}ethyl)imino]diacetate] | 0.034 | 0.004 | 0.013 | 0.005 | –
CCOC(=O)CN1CCN(C(=O)c2c[nH]c(-c3cc(Oc4ccc(NC(=O)Nc5cc(C)ccc5F)c(F)c4)ccn3)c2)CC1 [Example 219, ethyl {4-[(5-{4-[3-fluoro-4-({[(2-fluoro-5-methylphenyl)amino]carbonyl}amino)phenoxy]pyridin-2-yl}-1H-pyrrol-3-yl)carbonyl]piperazin-1-yl}acetate] | 0.029 | 0.008 | 0.008 | 0.009 | –
Cc1ccc(F)c(NC(=O)Nc2ccc(Oc3ccnc(-c4cc(C(=O)N5CCNCC5)c[nH]4)c3)cc2F)c1 [Example 221, 1-(2-fluoro-5-methylphenyl)-3-[2-fluoro-4-({2-[4-(piperazin-1-ylcarbonyl)-1H-pyrrol-2-yl]pyridin-4-yl}oxy)phenyl]urea] | 0.019 | 0.015 | 0.007 | 0.011 | –
Cc1ccc(F)c(NC(=O)Nc2ccc(Oc3ccnc(-c4cc(C(=O)OCCCN5CCOCC5)c[nH]4)c3)cc2F)c1 [Example 229, 3-morpholin-4-ylpropyl 5-{4-[3-fluoro-4-({[(2-fluoro-5-methylphenyl)amino]carbonyl}amino)phenoxy]pyridin-2-yl}-1H-pyrrole-3-carboxylate] | 0.009 | 0.013 | 0.011 | 0.011 | –
COC(=O)CN(CCCNC(=O)c1c[nH]c(-c2cc(Oc3ccc(NC(=O)Nc4cc(C)ccc4F)cc3)ccn2)c1)CC(=O)OC [Example 232, dimethyl 2,2′-[(3-{[(5-{4-[4-({[(2-fluoro-5-methylphenyl)amino]carbonyl}amino)phenoxy]pyridin-2-yl}-1H-pyrrol-3-yl)carbonyl]amino}propyl)imino]diacetate] | 0.02 | 0.005 | 0.016 | 0.009 | –
Cc1cccc(NC(=O)Nc2ccc(Oc3ccnc(-c4cc(C(=O)NCCCO)c[nH]4)c3)cc2)c1 [Example 237] | 0.019 | 0.003 | 0.008 | 0.008 | –
Cc1ccc(F)c(NC(=O)Nc2ccc(Oc3ccnc(-c4cc(C(=O)NN)c[nH]4)c3)cc2)c1 [Example 241, 1-(2-fluoro-5-methylphenyl)-3-[4-({2-[4-(hydrazinocarbonyl)-1H-pyrrol-2-yl]pyridin-4-yl}oxy)phenyl]urea] | 0.027 | 0.004 | 0.019 | 0.01 | –
COC(=O)[C@@H]1CCCN1CCCNC(=O)c1c[nH]c(-c2cc(Oc3cc(C(=O)Nc4cc(C)ccc4F)ccc3F)ccn2)c1 [Example 243, methyl (2S)-1-{3-[({5-[4-(2-fluoro-5-{[(2-fluoro-5-methylphenyl)amino]carbonyl}phenoxy)pyridin-2-yl]-1H-pyrrol-3-yl}carbonyl)amino]propyl}pyrrolidine-2-carboxylate] | 0.08 | 0.005 | 0.039 | 0.016 | –
COC(=O)CC[C@H](NC(=O)c1c[nH]c(-c2cc(Oc3ccc(NC(=O)Nc4cc(C)ccc4F)c(F)c3)ccn2)c1)C(=O)OC [Example 270, dimethyl 2-{[(5-{4-[3-fluoro-4-({[(2-fluoro-5-methylphenyl)amino]carbonyl}amino)phenoxy]pyridin-2-yl}-1H-pyrrol-3-yl)carbonyl]amino}pentanedioate] | 0.018 | 0.008 | 0.008 | 0.007 | –
Cc1ccc(F)c(NC(=O)Nc2ccc(Oc3ccnc(-c4cc(C(=O)OCCCN5CCOCC5)c[nH]4)c3)cc2)c1 [Example 274, 3-morpholin-4-ylpropyl 5-{4-[4-({[(2-fluoro-5-methylphenyl)amino]carbonyl}amino)phenoxy]pyridin-2-yl}-1H-pyrrole-3-carboxylate] | 0.027 | 0.01 | 0.016 | 0.011 | –
